This note sets out measurements from PubChem BioAssay AID1769 (NMMLSC, 2009).

In general, EC50 refers to the concentration giving half of the maximal effect.

This assay has as its target glutathione S-transferase (Schistosoma japonicum GST tag binding GSH beads). Briefly: GST–glutathione bead interaction interference profiling – biochemical, multiplex beads, flow cytometry, profiling panel (AID 1769).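 Note: target is a GST and green fluorescent protein fusion captured on glutathione beads.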 The conditions noted are these: flow cytometry fluorescence. For orientation: Flow cytometry measures light scatter and fluorescence of single cells or particles in a stream.

Turning to `Oc1c(CN2CCOCC2)ccc2ccccc12`, the EC50 was 24.5 µM.
For `Cc1nnc2ccc(-c3cccc(NC(=O)c4ccco4)c3)nn12`, the EC50 is 7.84 µM.
For `Cn1c(O)c(C2=c3ccccc3=NC2=O)[nH]c1=S`, the EC50 is 13.4 µM.
As to `O=C(CN1CCN(c2ccc(O)cc2)CC1)Nc1cc(S(=O)(=O)N2CCCCC2)ccc1Cl`, the EC50 was 19.1 µM.
As to `CCN(CC)c1ccc(/C=C/C(=O)c2ccc(Br)cc2)cc1`, the EC50 was 11.2 µM.
For the compound `Cc1cc(C)cc(N2C(=O)NC(=O)/C(=C\C=C\c3ccco3)C2=O)c1`, the EC50 was 4.38 µM.
`COc1ccc(S(=O)(=O)N2CCCCC2)cc1NC(=O)c1ccc([N+](=O)[O-])o1`: the EC50 is 28.6 µM.
Consider `COc1ccc(-c2csc(NC(=S)NC(=O)c3cccs3)n2)cc1OC`, for which the EC50 was 1.33 µM.
For `O=c1c2ccccc2nc2ccc(NCc3ccco3)nn12`, the EC50 is 50.8 µM.
For `COc1cc2[nH]c(=S)nc(NC3CCCCCC3)c2cc1OC` the value was 1.32 µM.
As to `CN(/N=C/c1ccc(Br)o1)C1=NS(=O)(=O)c2ccccc21`, the EC50 was 0.184 µM.
`O=c1c2ccc([N+](=O)[O-])cc2ncn1Cc1ccccc1C(F)(F)F`: the EC50 is 7.62 µM.
